Assay results taken from patent US20030225047A1, “Sulfatase inhibiting progestogen-only contraceptive regimens” (priority 2002, published 2003).

What was measured:
[1] = system: conversion of E1S to E2 (sulfatase activity) in T-47D breast cancer cell line; experiment: Conversion of [3H]-E1S to E2 in T-47D human mammary cancer cells; format: cell-based; conditions: for inhibition at 0.005 µM / inhibition at 0.5 µM / inhibition at 50 µM / IC50: Homo sapiens, T47D; for inhibition at 0.005 µM / inhibition at 0.5 µM / inhibition at 50 µM: mean ± SEM; for IC50: non-linear regression analysis; for E2 formed: 5×10^−9 mol/l [3H]-E1S, control 1805 ± 152
Method: (§1) [6,7-^3H(N)]-estrone sulfate (^3H-E1S), ammonium salt (sp. act. 53 Ci/mmol) and [4-^14C]-estradiol (^14C-E2) (sp. act. 57 mCi/mmol) were purchased from New England Nuclear Division (DuPont de Nemours, Les Ulls, France). The purity of the radioisotopes was assessed by thin-layer chromatography (TLC) in the appropriate system before use. E1S, ammonium salt, unlabeled E1and E2, (analytical grade) were obtained from Sigma-Aldrich Chimle, (St Quentin Fallavier, France). 17-deacetylnorgestimate (NGMN; 13-ethyl-17-hydroxy-18,19-dinor-17α-pregn-4-en-20-yn-3-one oxime) was a gift from R. W. Johnson Pharmaceutical Research Institute, Medicinal Chemistry Department, (Raritan, N.J., USA); medroxyprogesterone acetate (MPA, 17α-acetoxy-6α-methylprogesterone) was obtained from Sigma-Aldrich Chimie. All other chemicals were of the highest grade commercially available.
(§2) The hormone-dependent MCF-7 and T-47D human mammary cancer cell lines were grown in Eagle's Minimal Essential Medium (MEM) buffered with 10 mmol/l HEPES (pH 7.6), supplemented with 2 mmol/l L-glutamine, 100 U/ml penicillin-streptomycin and 5% fetal calf serum (FCS) (A.T.G.C., Marne-la-Vallée, France) for T-47D, or 10% FCS for MCF-7 cells, and incubated at 37° C. n a humidified atmosphere of 5% CO2. Media were changed twice a week. The cells were passed every 10-12 days and replated in 75 cm^2 flasks (A.T.G.C.) at 3×10^6 cells/flask. Four days before the experiments, the cells were transferred to MEM containing 5% steroid-depleted treated FCS. The FCS had been treated overnight at 4° C. with dextran-coated charcoal (DCC)(0.1-1% w/v, DCC-FCS). The MCF-7 and T-47D cell lines used herein were deposited in accordance with the Budapest Treaty under the references MCF7_JJPRD and T47D_JJPRD on May 17, 2002 at The Belgian Co-ordinated Collections of Micro-organisms (BCCM), Laboratorium voor Moleculaire Biologie, Universiteit Gent, K. L. Ledeganckstraat 35, B-9000 Gent, Belgium and are publicly available under accession numbers LMBP 5862CB and LMBP 5863CB, respectively.
(§3) Preconfluent cells were incubated for 4 hours at 37° C. in MEM-DCC-FCS with the addition of 5×10^−9 mol/l of [^3H]-E1S, alone (control cells) or in combination with the different compounds: NGMN or MPA, dissolved in ethanol (final concentration <0.2%), at a range of concentrations of 5×10^−5-5×10^−9 mol/l. Control cells received ethanol vehicle only. After 24 hours, the medium was removed, the cells washed twice with ice-cold Hank's Buffered Saline Solution (HBSS, calcium-magnesium-free)(A.T.G.C.) and harvested by scraping. After centrifugation, the pallet was treated with 80% ethanol and the radioactivity extracted for at least 24 h at −20° C. The cellular radioactivity uptake was determined in the ethanolic supernatant and the DNA content in the remaining pellet was evaluated according to Burton Biochem Journal 62:315-323, 1956. [^14C]-E2 (5,000 dpm) was added to monitor analytical losses and unlabeled E1and E2 (50 μg) were used as carriers and reference indicators. In the total ethanolic extracts, E2 was isolated by thin layer chromatography (TLC) on silica gel 60F254 (Merck, Darmstadt, Germany), developed with chloroformi-ethylacetate (4:1, v/v) system. After visualization of the estrogens under U.V. at 254 nm, the appropriate areas were cut off into small pieces, placed in liquid scintillation vials with ethanol (0.5 ml) and allowed to extract for […]. Three ml of Opti-fluor (Packard, Rungis, France) were added and the vials were analyzed for ^3H and ^14C contents with quench correction by external standarization. The quantitative evaluation of E2 was calculated as a percentage of the total radioactivity associated with the cells and then expressed as fmol of E2 formed/mg DNA from E1S.
(§4) Data are expressed as the mean±standard error of the mean (SEM) values. Student's t-test was used to assess the significance of the differences between means; p values ≦0.05_were considered significant. […]

[2] = system: conversion of E1S to E2 (sulfatase activity) in MCF-7 breast cancer cell line; experiment: Conversion of [3H]-E1S to E2 in MCF-7 human mammary cancer cells; format: cell-based; conditions: for inhibition at 0.005 µM / inhibition at 0.5 µM / inhibition at 50 µM / IC50: Homo sapiens; for inhibition at 0.005 µM: MCF7, compound conc 0.005 × 10^−6 mol/l; for inhibition at 0.005 µM / inhibition at 0.5 µM / inhibition at 50 µM: mean ± SEM; for inhibition at 0.5 µM: MCF7, compound conc 0.5 × 10^−6 mol/l; for inhibition at 50 µM: MCF7, compound conc 50 × 10^−6 mol/l; for IC50: MCF7, non-linear regression analysis; for E2 formed: 5×10^−9 mol/l [3H]-E1S, control 2185 ± 101
Method: as §1, §2, §3, §4

[3] = humans; major metabolite; cited from earlier work
[4] = compound conc 0.005 × 10^−6 mol/l
[5] = compound conc 0.5 × 10^−6 mol/l
[6] = compound conc 0.005 × 10^−6 mol/l, mean of 3 experiments

| Structure (SMILES) | inhibition at 0.005 µM [1, 4] [%] | inhibition at 0.5 µM [1, 5] [%] | inhibition at 50 µM ([1]; compound conc 50 × 10^−6 mol/l) [%] | IC50 [1] [nM] | E2 formed [1, 6] [fmol/mg DNA] | E2 formed [1, 5] [fmol/mg DNA] | E2 formed ([1]; compound conc 50 × 10^−6 mol/l) [fmol/mg DNA] | inhibition at 0.005 µM [2] [%] | inhibition at 0.5 µM [2] [%] | inhibition at 50 µM [2] [%] | IC50 [2] [nM] | E2 formed [2, 4] [fmol/mg DNA] | E2 formed [2, 5] [fmol/mg DNA] | E2 formed ([2]; compound conc 50 × 10^−6 mol/l) [fmol/mg DNA] | fraction of norgestimate converted to norelgestromin in vivo [3] [%] |
| --- | --- | --- | --- | --- | --- | --- | --- | --- | --- | --- | --- | --- | --- | --- | --- |
| CC(=O)O[C@]1(C(C)=O)CC[C@H]2[C@@H]3C[C@H](C)C4=CC(=O)CC[C@]4(C)[C@H]3CC[C@@]21C [MPA, 17α-acetoxy-6α-methylprogesterone] | 31 | 47 | 61 | 2150 | 1245 | 957 | 704 | 6 | 20 | 63 | 26100 | 2054 | 1748 | 808 |  |
| C#C[C@]1(O)CC[C@H]2[C@@H]3CCC4=C/C(=N/O)CC[C@@H]4[C@H]3CC[C@@]21CC [NGMN, 13-ethyl-17-hydroxy-18,19-dinor-17α-pregn-4-en-20-yn-3-one oxime] | 43 | 74 | 97 | 12.7 | 1029 | 469 | 54 | 25 | 57 | 96 | 178 | 1639 | 940 | 87 |  |
| C#C[C@]1(OC(C)=O)CC[C@H]2[C@@H]3CCC4=CC(=NO)CC[C@@H]4[C@H]3CC[C@@]21CC (mixture of isomers) [norgestimate] |  |  |  |  |  |  |  |  |  |  |  |  |  |  | ≥ 80 |
